Test results as given in ChEMBL document CHEMBL1154822, “Synthesis and antiproliferative activity of 7-azaindirubin-3'-oxime, a 7-aza isostere of the natural indirubin pharmacophore” (J Nat Prod, 2009).

What was measured:
[1] = test system: MOLT-4; assay: Cytotoxicity against human MOLT4 cells assessed as cell growth at 0.1 uM after 1 to 11 days by MTT assay; format: functional; conditions: read-out: Activity
[2] = test system: BT-549; assay: Cytotoxicity against human BT549 cells assessed as cell growth at 100 uM after 1 to 11 days by MTT assay; format: functional; conditions: read-out: Activity
[3] = test system: PC-3; assay: Cytotoxicity against human PC3 cells assessed as cell growth at 1 uM after 1 to 11 days by MTT assay; format: functional; conditions: read-out: Activity
[4] = test system: BT-549; assay: Cytotoxicity against human BT549 cells after 1 to 11 days by MTT assay; format: functional
[5] = test system: SF-539; assay: Cytotoxicity against human SF539 cells assessed as cell growth at 10 uM after 1 to 11 days by MTT assay; format: functional; conditions: read-out: Activity
[6] = test system: SNB-75; assay: Cytotoxicity against human SNB75 cells assessed as cell growth at 1 mM after 1 to 11 days by MTT assay; format: functional; conditions: read-out: Activity
[7] = test system: UACC-257; assay: Cytotoxicity against human UACC257 cells assessed as cell growth at 100 uM after 1 to 11 days by MTT assay; format: functional; conditions: read-out: Activity
[8] = test system: OVCAR-3; assay: Cytotoxicity against human OVCAR-3 cells assessed as cell growth at 0.1 uM after 1 to 11 days by MTT assay; format: functional; conditions: read-out: Activity
[9] = test system: NCI-H460; assay: Cytotoxicity against human NCI-H460 cells assessed as cell growth at 1 mM after 1 to 11 days by MTT assay; format: functional; conditions: read-out: Activity
[10] = test system: SN12C; assay: Cytotoxicity against human SN12C cells assessed as cell growth at 0.1 uM after 1 to 11 days by MTT assay; format: functional; conditions: read-out: Activity
[11] = test system: NCI-H226; assay: Cytotoxicity against human NCI-H226 cells assessed as cell growth at 0.1 uM after 1 to 11 days by MTT assay; format: functional; conditions: read-out: Activity
[12] = test system: TK-10; assay: Cytotoxicity against human TK10 cells assessed as cell growth at 1 mM after 1 to 11 days by MTT assay; format: functional; conditions: read-out: Activity
[13] = target: Glycogen synthase kinase-3 beta (Homo sapiens) (UniProt P49841); assay: Inhibition of human GSK3-beta at 3 uM after 40 mins by scintillation counting
Chain of Glycogen synthase kinase-3 beta (Homo sapiens) (P49841 whole entry, looked up): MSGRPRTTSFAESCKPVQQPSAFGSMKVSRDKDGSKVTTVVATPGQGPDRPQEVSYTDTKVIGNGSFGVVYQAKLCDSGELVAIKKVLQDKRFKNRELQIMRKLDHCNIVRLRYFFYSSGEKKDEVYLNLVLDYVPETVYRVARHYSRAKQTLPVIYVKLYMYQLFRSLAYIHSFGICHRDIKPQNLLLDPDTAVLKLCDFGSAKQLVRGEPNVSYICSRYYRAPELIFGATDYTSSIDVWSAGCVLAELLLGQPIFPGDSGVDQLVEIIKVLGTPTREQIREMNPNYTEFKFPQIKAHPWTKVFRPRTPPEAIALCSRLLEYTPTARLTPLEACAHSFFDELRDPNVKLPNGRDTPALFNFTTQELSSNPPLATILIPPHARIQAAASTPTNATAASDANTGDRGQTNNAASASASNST

[14] = test system: RXF 393; assay: Cytotoxicity against human […] cells assessed as cell growth at 0.1 uM after 1 to 11 days by MTT assay; format: functional; conditions: read-out: Activity
[15] = test system: SF-268; assay: Cytotoxicity against human SF268 cells assessed as cell growth at 1 mM after 1 to 11 days by MTT assay; format: functional; conditions: read-out: Activity
[16] = test system: HL-60(TB); assay: Cytotoxicity against human HL-60(TB) cells assessed as cell growth at 10 uM after 1 to 11 days by MTT assay; format: functional; conditions: read-out: Activity
[17] = test system: HOP-62; assay: Cytotoxicity against human HOP62 cells assessed as cell growth at 0.1 uM after 1 to 11 days by MTT assay; format: functional; conditions: read-out: Activity
[18] = test system: HOP-62; assay: Cytotoxicity against human HOP62 cells after 1 to 11 days by MTT assay; format: functional
[19] = test system: OVCAR-5; assay: Cytotoxicity against human OVCAR5 cells after 1 to 11 days by MTT assay; format: functional
[20] = test system: UACC-257; assay: Cytotoxicity against human UACC257 cells assessed as cell growth at 1 uM after 1 to 11 days by MTT assay; format: functional; conditions: read-out: Activity
[21] = test system: HOP-92; assay: Cytotoxicity against human HOP92 cells assessed as cell growth at 10 uM after 1 to 11 days by MTT assay; format: functional; conditions: read-out: Activity
[22] = test system: HCT-116; assay: Cytotoxicity against human HCT116 cells after 1 to 11 days by MTT assay; format: functional
[23] = test system: SK-OV-3; assay: Cytotoxicity against human SKOV3 cells assessed as cell growth at 100 uM after 1 to 11 days by MTT assay; format: functional; conditions: read-out: Activity
[24] = test system: IGROV-1; assay: Cytotoxicity against human IGROV1 cells after 1 to 11 days by MTT assay; format: functional
[25] = test system: SK-MEL-28; assay: Cytotoxicity against human SK-MEL-28 cells after 1 to 11 days by MTT assay; format: functional
[26] = test system: SK-MEL-28; assay: Cytotoxicity against human SK-MEL-28 cells assessed as cell growth at 1 mM after 1 to 11 days by MTT assay; format: functional; conditions: read-out: Activity
[27] = test system: OVCAR-5; assay: Cytotoxicity against human OVCAR5 cells assessed as cell growth at 0.1 uM after 1 to 11 days by MTT assay; format: functional; conditions: read-out: Activity
[28] = test system: HT-29; assay: Cytotoxicity against human HT-29 cells assessed as cell growth at 1 uM after 1 to 11 days by MTT assay; format: functional; conditions: read-out: Activity
[29] = test system: SK-OV-3; assay: Cytotoxicity against human SKOV3 cells assessed as cell growth at 1 mM after 1 to 11 days by MTT assay; format: functional; conditions: read-out: Activity
[30] = test system: SW-620; assay: Cytotoxicity against human SW620 cells assessed as cell growth at 0.1 uM after 1 to 11 days by MTT assay; format: functional; conditions: read-out: Activity
[31] = test system: ACHN; assay: Cytotoxicity against human ACHN cells assessed as cell growth at 1 mM after 1 to 11 days by MTT assay; format: functional; conditions: read-out: Activity
[32] = test system: K562; assay: Cytotoxicity against human K562 cells after 1 to 11 days by MTT assay; format: functional
[33] = test system: MOLT-4; assay: Cytotoxicity against human MOLT4 cells after 1 to 11 days by MTT assay; format: functional
[34] = test system: SK-OV-3; assay: Cytotoxicity against human SKOV3 cells after 1 to 11 days by MTT assay; format: functional
[35] = test system: KM12; assay: Cytotoxicity against human KM12 cells after 1 to 11 days by MTT assay; format: functional
[36] = test system: COLO 205; assay: Cytotoxicity against human COLO205 cells assessed as cell growth at 10 uM after 1 to 11 days by MTT assay; format: functional; conditions: read-out: Activity
[37] = test system: 786-0; assay: Cytotoxicity against human 786-0 cells after 1 to 11 days by MTT assay; format: functional
[38] = test system: SK-OV-3; assay: Cytotoxicity against human SKOV3 cells assessed as cell growth at 0.1 uM after 1 to 11 days by MTT assay; format: functional; conditions: read-out: Activity
[39] = test system: T47D; assay: Cytotoxicity against human T47D cells assessed as cell growth at 1 uM after 1 to 11 days by MTT assay; format: functional; conditions: read-out: Activity
[40] = test system: Malme-3M; assay: Cytotoxicity against human MALME-3M cells assessed as cell growth at 1 uM after 1 to 11 days by MTT assay; format: functional; conditions: read-out: Activity
[41] = test system: OVCAR-4; assay: Cytotoxicity against human OVCAR4 cells assessed as cell growth at 1 uM after 1 to 11 days by MTT assay; format: functional; conditions: read-out: Activity
[42] = test system: OVCAR-3; assay: Cytotoxicity against human OVCAR-3 cells assessed as cell growth at 100 uM after 1 to 11 days by MTT assay; format: functional; conditions: read-out: Activity
[43] = test system: HCT-116; assay: Cytotoxicity against human HCT116 cells assessed as cell growth at 10 uM after 1 to 11 days by MTT assay; format: functional; conditions: read-out: Activity
[44] = read-out: LC50 (the source's name)

Work on `O=C1Nc2ncccc2/C1=C1/Nc2ccccc2/C1=N\O` yielded a growth at 0.1 µM [1] of 92%, a growth at 100 µM [2] of 43% and a growth at 1 µM [3] of 83%. It also gave a GI50 [4] of 5.41 µM, a TGI [4] of over 100 µM and a CC50 [4, 44] of over 100 µM. The growth at 10 µM [5] was 87%, the growth at 1000 µM [6] was 19% and the growth at 100 µM [7] was 79%. The growth at 0.1 µM [8] was 99%, the growth at 1000 µM [9] was 32% and the growth at 0.1 µM [10] was 93%. For the same compound, the growth at 0.1 µM [11] was 86%, the growth at 1000 µM [12] was 14% and the inhibition [13] was 81%. The growth at 0.1 µM [14] was 93%, the growth at 1000 µM [15] was 54% and the growth at 10 µM [16] was 80%. It also gave a growth at 0.1 µM [17] of 102%, a GI50 [18] of over 100 µM and a TGI [18] of over 100 µM. It also gave a CC50 [18, 44] of over 100 µM, a GI50 [19] of 93.9 µM and a TGI [19] of over 100 µM. It also gave a CC50 [19, 44] of over 100 µM, a growth at 1 µM [20] of 92% and a growth at 10 µM [21] of 62%. For the same compound, the TGI [22] was over 100 µM, the CC50 [22, 44] was over 100 µM and the growth at 100 µM [23] was -6%. The GI50 [24] was 1.64 µM, the TGI [24] was over 100 µM and the CC50 [24, 44] was over 100 µM. The GI50 [25] was 32.8 µM, the TGI [25] was over 100 µM and the CC50 [25, 44] was over 100 µM. The growth at 1000 µM [26] was 47%, the growth at 0.1 µM [27] was 89% and the growth at 1 µM [28] was 98%. It also gave a growth at 1000 µM [29] of 8%, a growth at 0.1 µM [30] of 99% and a growth at 1000 µM [31] of 17%. The GI50 [32] was 3.84 µM, the TGI [32] was over 100 µM and the CC50 [32, 44] was over 100 µM. For the same compound, the GI50 [33] was 2.99 µM, the TGI [33] was over 100 µM and the CC50 [33, 44] was over 100 µM. For the same compound, the GI50 [34] was 1.79 µM, the CC50 [34, 44] was over 100 µM and the GI50 [35] was 0.77 µM. It also gave a TGI [35] of over 100 µM, a CC50 [35, 44] of over 100 µM and a growth at 10 µM [36] of 84%. The GI50 [37] was 7.46 µM, the CC50 [37, 44] was over 100 µM and the growth at 0.1 µM [38] was 100%. It also gave a growth at 1 µM [39] of 86%, a growth at 1 µM [40] of 89% and a growth at 1 µM [41] of 97%. It also gave a growth at 100 µM [42] of 51% and a growth at 10 µM [43] of 108%.
